Data reported in PMC6095594, “Pre-clinical evaluation of quinoxaline-derived chalcones in tuberculosis” (PLoS ONE, 2018).
Converted amounts (≈) assume the structure as drawn. Like-named read-outs stand apart in the source and are kept apart here.

Key:
[1] = tested on: M. tuberculosis H37Rv strain; assay: microbe, parasite or virus in culture; format: cell-based
[2] = tested on: M. tuberculosis pan-susceptible clinical isolate CDCT-28; assay: microbe, parasite or virus in culture; format: cell-based; settings: Mycobacterium tuberculosis
[3] = tested on: M. tuberculosis pNIP::control; assay: microbe, parasite or virus in culture; format: cell-based; settings: Mycobacterium tuberculosis; pNIP::control (empty vector)
[4] = tested on: S. typhimurium TA100; assay: Salmonella/microsome mutagenicity test
Procedure: (§1) Salmonella typhimurium strains TA98, TA97a, TA100, TA1535, and TA102 were provided by MOLTOX® (Molecular Toxicology Inc. USA). Mutagenicity was assayed according to the pre-incubation procedure following the recommendation described in Mortelmans and Zieger (2000). […] Briefly, 100 μL of test bacterial cultures (1–2 x 10^9 cells/mL) were incubated at 37 °C with different concentrations of N9 (10–400 μg/plate) in the presence or absence of S9 mix, for 20 min, without shaking. […] Plates were incubated in the dark at 37 °C for 48 h before counting the revertant colonies. Assays were repeated twice and the plating for each concentration was conducted in triplicate. Data were evaluated by one-way analysis of variance (ANOVA), followed by Dunnett's post-test, using GraphPad Prism 5.0 (GraphPad, San Diego, CA, USA).

[5] = tested on: S. typhimurium TA1535; assay: Salmonella/microsome mutagenicity test
Procedure: as §1

[6] = tested on: S. typhimurium TA102; assay: Salmonella/microsome mutagenicity test
Procedure: Salmonella typhimurium strains TA98, TA97a, TA100, TA1535, and TA102 were provided by MOLTOX® (Molecular Toxicology Inc. USA). Mutagenicity was assayed according to the pre-incubation procedure following the recommendation described in Mortelmans and Zieger (2000). […] Briefly, 100 μL of test bacterial cultures (1–2 x 10^9 cells/mL) were incubated at 37 °C with different concentrations of N9 (10–400 μg/plate) in the presence or absence of S9 mix, for 20 min, without shaking. […] 2-aminoanthracene (2-AA, 5 μg/plate) was used as positive control for all strains in the presence of metabolic activation (with S9 mix). […] Plates were incubated in the dark at 37 °C for 48 h before counting the revertant colonies. Assays were repeated twice and the plating for each concentration was conducted in triplicate. Data were evaluated by one-way analysis of variance (ANOVA), followed by Dunnett's post-test, using GraphPad Prism 5.0 (GraphPad, San Diego, CA, USA).

With `COc1ccc(OC)c(C(=O)/C=C/c2ccc3nccnc3c2)c1` [N9] the MIC ([1]; H37Rv) was 3.13 µg/mL (≈ 9.77 µM), the MIC ([1]; Mycobacterium tuberculosis, H37RV, read-out: MIC) was 3.13 to 12.5 µg/mL (≈ 9.77 to 39 µM) and the MIC ([1]; Mycobacterium tuberculosis, read-out: MICs, M. tuberculosis H37Rv strain, and clinical isolates (summary)) was 1.56 to 3.13 µg/mL (≈ 4.87 to 9.79 µM). The MIC [2] was 1.56 µg/mL (≈ 4.87 µM), the MIC [3] was 3.13 µg/mL (≈ 9.77 µM) and the “MI: mutagenic index” value ([4]; TA100, +S9, 10 μg/plate) was 0.94. The Number of revertants/plate ([4]; TA100, +S9, 10 μg/plate) was 108.7±15.2 Rev/plate, the “MI: mutagenic index” value ([4]; TA100, +S9, 50 μg/plate) was 1.13 and the Number of revertants/plate ([4]; TA100, +S9, 50 μg/plate) was 130.7±10.7 Rev/plate. For the same compound, the “MI: mutagenic index” value ([4]; TA100, +S9, 100 μg/plate) was 0.97, the Number of revertants/plate ([4]; TA100, +S9, 100 μg/plate) was 112.7±15.5 Rev/plate and the “MI: mutagenic index” value ([4]; TA100, +S9, 200 μg/plate) was 0.95. For the same compound, the Number of revertants/plate ([4]; TA100, +S9, 200 μg/plate) was 110.0±11.8 Rev/plate, the “MI: mutagenic index” value ([4]; TA100, +S9, 400 μg/plate) was 0.97 and the Number of revertants/plate ([4]; TA100, +S9, 400 μg/plate) was 112.0±13.9 Rev/plate. The “MI: mutagenic index” value ([4]; TA100, -S9, 10 μg/plate) was 1.08, the Number of revertants/plate ([4]; TA100, -S9, 10 μg/plate) was 125.0±10.5 Rev/plate and the “MI: mutagenic index” value ([4]; TA100, -S9, 50 μg/plate) was 0.88. The Number of revertants/plate ([4]; TA100, -S9, 50 μg/plate) was 101.0±12.5 Rev/plate, the “MI: mutagenic index” value ([4]; TA100, -S9, 100 μg/plate) was 0.84 and the Number of revertants/plate ([4]; TA100, -S9, 100 μg/plate) was 97.0±20.1 Rev/plate. The “MI: mutagenic index” value ([4]; TA100, -S9, 200 μg/plate) was 0.95, the Number of revertants/plate ([4]; TA100, -S9, 200 μg/plate) was 109.7±7.8 Rev/plate and the “MI: mutagenic index” value ([4]; TA100, -S9, 400 μg/plate) was 0.84. For the same compound, the Number of revertants/plate ([4]; TA100, -S9, 400 μg/plate) was 96.7±9.3 Rev/plate, the “MI: mutagenic index” value ([5]; TA1535, +S9, 10 μg/plate) was 1.16 and the Number of revertants/plate ([5]; TA1535, +S9, 10 μg/plate) was 9.7±1.2 Rev/plate. For the same compound, the “MI: mutagenic index” value ([5]; TA1535, +S9, 50 μg/plate) was 1.24, the Number of revertants/plate ([5]; TA1535, +S9, 50 μg/plate) was 10.3±2.5 Rev/plate and the “MI: mutagenic index” value ([5]; TA1535, +S9, 100 μg/plate) was 1.00. For the same compound, the Number of revertants/plate ([5]; TA1535, +S9, 100 μg/plate) was 8.3±4.9 Rev/plate, the “MI: mutagenic index” value ([5]; TA1535, +S9, 200 μg/plate) was 1.04 and the Number of revertants/plate ([5]; TA1535, +S9, 200 μg/plate) was 8.7±1.2 Rev/plate. For the same compound, the “MI: mutagenic index” value ([5]; TA1535, +S9, 400 μg/plate) was 0.68, the Number of revertants/plate ([5]; TA1535, +S9, 400 μg/plate) was 5.7±1.2 Rev/plate and the “MI: mutagenic index” value ([5]; TA1535, -S9, 10 μg/plate) was 1.03. The Number of revertants/plate ([5]; TA1535, -S9, 10 μg/plate) was 11.7±0.6 Rev/plate, the “MI: mutagenic index” value ([5]; TA1535, -S9, 50 μg/plate) was 0.82 and the Number of revertants/plate ([5]; TA1535, -S9, 50 μg/plate) was 9.3±0.6 Rev/plate. For the same compound, the “MI: mutagenic index” value ([5]; TA1535, -S9, 100 μg/plate) was 1.03, the Number of revertants/plate ([5]; TA1535, -S9, 100 μg/plate) was 11.7±5.9 Rev/plate and the “MI: mutagenic index” value ([5]; TA1535, -S9, 200 μg/plate) was 1.18. The Number of revertants/plate ([5]; TA1535, -S9, 200 μg/plate) was 13.3±4.0 Rev/plate, the “MI: mutagenic index” value ([5]; TA1535, -S9, 400 μg/plate) was 1.24 and the Number of revertants/plate ([5]; TA1535, -S9, 400 μg/plate) was 14.0±3.6 Rev/plate. For the same compound, the “MI: mutagenic index” value ([6]; TA102, +S9, 10 μg/plate) was 1.01, the Number of revertants/plate ([6]; TA102, +S9, 10 μg/plate) was 376.3±29.0 Rev/plate and the “MI: mutagenic index” value ([6]; TA102, +S9, 50 μg/plate) was 0.96. The Number of revertants/plate ([6]; TA102, +S9, 50 μg/plate) was 358.0±49.1 Rev/plate, the “MI: mutagenic index” value ([6]; TA102, +S9, 100 μg/plate) was 0.99 and the Number of revertants/plate ([6]; TA102, +S9, 100 μg/plate) was 368.7±12.7 Rev/plate. The “MI: mutagenic index” value ([6]; TA102, +S9, 200 μg/plate) was 1.02 and the Number of revertants/plate ([6]; TA102, +S9, 200 μg/plate) was 382.0±58.2 Rev/plate.
